Reference: PubChem BioAssay AID2060508 (Molecular Pharmacology Branch, DTP, NCI, 2025)

Test system: 454973-116-R2-J3-PDC spheroids, viability, % test/control
Experiment: Anticancer human tumor 454973-116-R2-J3-PDC patient-derived pancreatic carcinoma cell line growth inhibition [GQUAD]
Details: spheroids with HUVEC and MSC; for IC50: curve of first compound; for viability, T/C: stronger effect = lower value
Method in brief: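 Tumor cells were grown as complex spheroids with HUVEC endothelial cells and mesenchymal stem cells as stroma. G-quadruplex stabilizers were combined with targeted agents over half-log dilutions from near the clinical Cmax, or from 10 microM.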

[1] = second compound 0.0316 µM, first compound 0.0316 µM
[2] = second compound 0.0316 µM, first compound 0.316 µM
[3] = second compound 0.1 µM, first compound 0.0316 µM
[4] = second compound 0.1 µM, first compound 0.316 µM
[5] = second compound 0.316 µM, first compound 0.0316 µM
[6] = second compound 0.316 µM, first compound 0.316 µM
[7] = second compound 1 µM, first compound 0.0316 µM
[8] = second compound 1 µM, first compound 0.316 µM
[9] = second compound 3.16 µM, first compound 0.0316 µM
[10] = second compound 3.16 µM, first compound 0.316 µM
[11] = second compound 10 µM, first compound 0.0316 µM
[12] = second compound 10 µM, first compound 0.316 µM
[13] = second compound 0.0316 µM, first compound 0.1 µM
[14] = second compound 0.0316 µM, first compound 1 µM
[15] = second compound 0.0316 µM, first compound 3.16 µM
[16] = second compound 0.0316 µM, first compound 10 µM
[17] = second compound 0.1 µM, first compound 0.1 µM
[18] = second compound 0.1 µM, first compound 1 µM
[19] = second compound 0.1 µM, first compound 3.16 µM
[20] = second compound 0.1 µM, first compound 10 µM
[21] = second compound 0.316 µM, first compound 0.1 µM
[22] = second compound 0.316 µM, first compound 1 µM
[23] = second compound 0.316 µM, first compound 3.16 µM
[24] = second compound 0.316 µM, first compound 10 µM
[25] = second compound 1 µM, first compound 0.1 µM
[26] = second compound 1 µM, first compound 1 µM
[27] = second compound 1 µM, first compound 3.16 µM
[28] = second compound 1 µM, first compound 10 µM
[29] = second compound 3.16 µM, first compound 0.1 µM
[30] = second compound 3.16 µM, first compound 1 µM
[31] = second compound 3.16 µM, first compound 3.16 µM
[32] = second compound 3.16 µM, first compound 10 µM
[33] = second compound 10 µM, first compound 0.1 µM
[34] = second compound 10 µM, first compound 1 µM
[35] = second compound 10 µM, first compound 3.16 µM
[36] = second compound 10 µM, first compound 10 µM
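Also: spheroids exposed to compounds for seven days.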
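For viability, T/C in this document: 100% = DMSO vehicle control viability.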

`CCc1c2c(nc3ccc(O)cc13)-c1cc3c(c(=O)n1C2)COC(=O)[C@]3(O)CC` + Cc1[nH]c2ccc(F)cc2c1-c1nc2c3cccnc3c3ncccc3c2[nH]1 showed an IC50 (second compound 0.0316 µM) of 0.00153 µM, an IC50 (second compound 0.1 µM) of 0.00147 µM and an IC50 (second compound 0.316 µM) of 0.00167 µM. The IC50 (second compound 1 µM) was 0.00162 µM, the IC50 (second compound 3.16 µM) was 0.00134 µM and the IC50 (second compound 10 µM) was 0.00154 µM. For the same compound, the viability, T/C (second compound 0.0316 µM, first compound 0.000999 µM) was 62.5%, the viability, T/C (second compound 0.0316 µM, first compound 0.00316 µM) was 26.2% and the viability, T/C (second compound 0.0316 µM, first compound 0.00999 µM) was 21.5%. It also gave a viability, T/C [1] of 14.5%, a viability, T/C (second compound 0.0316 µM, first compound 0.0999 µM) of 7.97% and a viability, T/C [2] of 3.8%. It also gave a viability, T/C (second compound 0.1 µM, first compound 0.000999 µM) of 63.1%, a viability, T/C (second compound 0.1 µM, first compound 0.00316 µM) of 21.8% and a viability, T/C (second compound 0.1 µM, first compound 0.00999 µM) of 19.9%. It also gave a viability, T/C [3] of 13%, a viability, T/C (second compound 0.1 µM, first compound 0.0999 µM) of 8.7% and a viability, T/C [4] of 3.86%. For the same compound, the viability, T/C (second compound 0.316 µM, first compound 0.000999 µM) was 67.5%, the viability, T/C (second compound 0.316 µM, first compound 0.00316 µM) was 25.7% and the viability, T/C (second compound 0.316 µM, first compound 0.00999 µM) was 19.2%. The viability, T/C [5] was 14.6%, the viability, T/C (second compound 0.316 µM, first compound 0.0999 µM) was 7.62% and the viability, T/C [6] was 3.05%. For the same compound, the viability, T/C (second compound 1 µM, first compound 0.000999 µM) was 67.3%, the viability, T/C (second compound 1 µM, first compound 0.00316 µM) was 22.5% and the viability, T/C (second compound 1 µM, first compound 0.00999 µM) was 22%. The viability, T/C [7] was 13.3%, the viability, T/C (second compound 1 µM, first compound 0.0999 µM) was 7.87% and the viability, T/C [8] was 5.39%. The viability, T/C (second compound 3.16 µM, first compound 0.000999 µM) was 59.1%, the viability, T/C (second compound 3.16 µM, first compound 0.00316 µM) was 21.1% and the viability, T/C (second compound 3.16 µM, first compound 0.00999 µM) was 21.8%. The viability, T/C [9] was 15.2%, the viability, T/C (second compound 3.16 µM, first compound 0.0999 µM) was 8.28% and the viability, T/C [10] was 5.63%. The viability, T/C (second compound 10 µM, first compound 0.000999 µM) was 63.6%, the viability, T/C (second compound 10 µM, first compound 0.00316 µM) was 25.6% and the viability, T/C (second compound 10 µM, first compound 0.00999 µM) was 18.2%. For the same compound, the viability, T/C [11] was 14.2%, the viability, T/C (second compound 10 µM, first compound 0.0999 µM) was 8.05% and the viability, T/C [12] was 3.9%.

In the case of `Nc1ccn(C2OC(CO)C(O)C2(F)F)c(=O)n1` (stereo unspecified) + Cc1cnc(CNC(=O)c2c(=O)c3ccc(N4CCCN(C)CC4)nc3n3c2sc2ccccc23)cn1, the IC50 (second compound 0.0316 µM) is reported as < 0.0316 µM, the IC50 (second compound 0.1 µM) is reported as < 0.0316 µM and the IC50 (second compound 0.316 µM) is reported as < 0.0316 µM. For the same compound, the IC50 (second compound 1 µM) was < 0.0316 µM, the IC50 (second compound 3.16 µM) was < 0.0316 µM and the IC50 (second compound 10 µM) was < 0.0316 µM. The viability, T/C [1] was 18.9%, the viability, T/C [13] was 15.8% and the viability, T/C [2] was 17.5%. It also gave a viability, T/C [14] of 16.6%, a viability, T/C [15] of 14.2% and a viability, T/C [16] of 14.4%. It also gave a viability, T/C [3] of 22.7%, a viability, T/C [17] of 16.1% and a viability, T/C [4] of 15.6%. The viability, T/C [18] was 21.5%, the viability, T/C [19] was 17.8% and the viability, T/C [20] was 13.8%. For the same compound, the viability, T/C [5] was 30.5%, the viability, T/C [21] was 19.5% and the viability, T/C [6] was 18.4%. The viability, T/C [22] was 16.1%, the viability, T/C [23] was 20.2% and the viability, T/C [24] was 23.2%. The viability, T/C [7] was 43.7%, the viability, T/C [25] was 24.6% and the viability, T/C [8] was 24%. For the same compound, the viability, T/C [26] was 24.2%, the viability, T/C [27] was 22.9% and the viability, T/C [28] was 21.8%. The viability, T/C [9] was 45.5%, the viability, T/C [29] was 29.6% and the viability, T/C [10] was 30.5%. For the same compound, the viability, T/C [30] was 24.8%, the viability, T/C [31] was 32.8% and the viability, T/C [32] was 28.5%. It also gave a viability, T/C [11] of 0.17%, a viability, T/C [33] of 9.59% and a viability, T/C [12] of 26.2%. For the same compound, the viability, T/C [34] was 7.48%, the viability, T/C [35] was 0.89% and the viability, T/C [36] was 0.22%.

In the case of `C=CC(=O)N1CCN(c2nc(=O)n(-c3c(C)ccnc3C(C)C)c3nc(-c4c(O)cccc4F)c(F)cc23)C(C)C1` (stereo unspecified) + CN(C)c1ccc(Nc2c3ccc(NC(=O)CCN4CCCC4)cc3nc3cc(NC(=O)CCN4CCCC4)ccc23)cc1, the IC50 (second compound 0.0316 µM) is reported as > 10 µM, the IC50 (second compound 0.1 µM) is reported as > 10 µM and the IC50 (second compound 0.316 µM) is reported as > 10 µM. The IC50 (second compound 1 µM) was > 10 µM, the IC50 (second compound 3.16 µM) was > 10 µM and the IC50 (second compound 10 µM) was > 10 µM. The viability, T/C [1] was 112%, the viability, T/C [13] was 103% and the viability, T/C [2] was 110%. It also gave a viability, T/C [14] of 112%, a viability, T/C [15] of 102% and a viability, T/C [16] of 115%. The viability, T/C [3] was 103%, the viability, T/C [17] was 98.9% and the viability, T/C [4] was 107%. It also gave a viability, T/C [18] of 107%, a viability, T/C [19] of 102% and a viability, T/C [20] of 112%. The viability, T/C [5] was 107%, the viability, T/C [21] was 103% and the viability, T/C [6] was 103%. It also gave a viability, T/C [22] of 110%, a viability, T/C [23] of 99.5% and a viability, T/C [24] of 111%. The viability, T/C [7] was 97.3%, the viability, T/C [25] was 91.8% and the viability, T/C [8] was 104%. It also gave a viability, T/C [26] of 86.7%, a viability, T/C [27] of 102% and a viability, T/C [28] of 100%. The viability, T/C [9] was 97.7%, the viability, T/C [29] was 90.7% and the viability, T/C [10] was 93.8%. It also gave a viability, T/C [30] of 77.7%, a viability, T/C [31] of 103% and a viability, T/C [32] of 105%. The viability, T/C [11] was 83.4%, the viability, T/C [33] was 77.9% and the viability, T/C [12] was 82.4%. For the same compound, the viability, T/C [34] was 68.5%, the viability, T/C [35] was 79% and the viability, T/C [36] was 77.5%.
